Source: paper PMC8879095, “UHPLC-MS/MS Analysis of Antibiotics Transfer and Concentrations in Porcine Oral Fluid after Intramuscular Application” (Pharmaceuticals, 2022)
Like-named read-outs stand apart in the source and are kept apart here.

Assays:
[1] = cited from earlier work
[2] = Antibiotic concentrations in porcine oral fluid after intramuscular application (UHPLC-MS/MS); type: in vivo; conditions: pigs, i.m.; for distribution to oral fluid: conclusion in words
Protocol: All animals were born in the sow farm (8000 DanBred sows) located in Northern Poland, after crossing ♀(♂Landrace × ♀Yorskshire) × ♂Duroc. Piglets were weaned after 4 weeks of lactation with an average weight of 6 kg and then moved to the weaner stable (23,000 weaners). After the next 7 weeks, animals were transported to the 9000-places fattening farm with an average body weight of 28 kg, where the trial was performed. All farms in the aforementioned three-phase model used weekly batches and an all-in all-out system. Specialist veterinary and production management care were provided in each location.
For the purpose of the study, 240 immunologically castrated boars were divided into 8 groups, 30 animals in each pen. For the control group, 30 pigs were used in separate pens. Their initial body weight was between 40 and 60 kg. Pigs were housed at 20–25 °C. Fatteners were fed ad libitum with antimicrobial-free water and feed provided by feeders throughout the study. Before the experiment, water and feed were checked for antimicrobials, and no antimicrobial treatments were administered to these pigs before. All animals in one pen were treated due to the same health issue using disposable needles and the same drug and dosage. Pens were separated from each other with concrete walls. The drugs and dosage administered to each experimental group with an indication of withdrawal period for tissues are listed in Table 3. The oral fluid samples were collected using three cotton ropes (70 cm length with 1 cm diameter) in each pen suspended separately for 25 min on the front wall of the pen with bottoms at the pigs’ shoulder height, away from water and feed.
The research material was one pooled sample of oral fluid from 10 pigs, in triplicate, per pen. Ropes were removed immediately after collection. The first oral fluid sample was collected 24 h after the first injection. The collection of each subsequent sample took place at the same time (11:30 A.M.) for 35 consecutive days. Additionally, oral fluid samples were collected from pigs not treated with any antibiotics. Oral fluid from each pen was pooled into one 50-mL Falcon plastic tube and centrifuged at 9447× rcf for 15 min. Centrifuged material was transferred to a 15 mL plastic tube and frozen at −20 °C until analysis.
Before the analysis, the oral fluid samples were centrifuged at 9447× rcf. Next, an aliquot (1 mL) of oral fluid was placed into a 2 mL polypropylene centrifuge tube, and the 30 µL of the internal standard at the concentration of 2 µg/mL was added. For the extraction of analysed antibiotics, 600 µL of 0.5% formic acid was added, vortexed for 30 s and centrifuged for 10 min at 9447× rcf. Then, the supernatant was filtered through a […] PVDF filter into an amber glass vial before chromatographic analysis.
The mass spectrometry detection was operated in the positive ESI mode with multiple reaction monitoring (MRM).

[3] = design: method as in PMID 14651045, PMID 14651045; conditions: cited from earlier work
[4] = male, (Landrace × Yorkshire) × Duroc crossbred (DanBred sows), pig, intramuscular, oral fluid, time 1 d (24 h after first injection), treatment period, read-out: Avarage Concentrations in oral fluid
[5] = male, (Landrace × Yorkshire) × Duroc crossbred (DanBred sows), pig, intramuscular, oral fluid, treatment period, read-out: Avarage Concentrations in oral fluid
[6] = male, (Landrace × Yorkshire) × Duroc crossbred (DanBred sows), pig, intramuscular, oral fluid, time 4 d, posttreatment, read-out: Avarage Concentrations in oral fluid
[7] = male, (Landrace × Yorkshire) × Duroc crossbred (DanBred sows), pig, intramuscular, oral fluid, posttreatment, read-out: Avarage Concentrations in oral fluid
[8] = oral fluid, time 30 d, posttreatment

SMILES | pKa [1] | concentration at 1 d [2, 4] | concentration at 2 d [2, 5] | concentration at 3 d [2, 5] | concentration at 4 d [2, 6] | concentration at 5 d [2, 7] | concentration at 6 d [2, 7] | concentration at 7 d [2, 7] | concentration at 8 d [2, 7] | concentration at 9 d [2, 7] | concentration at 10 d [2, 7] | concentration at 11 d [2, 7] | concentration at 12 d [2, 7] | concentration at 13 d [2, 7] | concentration at 14 d [2, 7] | concentration at 15 d [2, 7] | concentration at 16 d [2, 7] | concentration at 17 d [2, 7] | concentration at 18 d [2, 7] | concentration at 19 d [2, 7] | also measured
C=C[C@]1(C)C[C@@H](OC(=O)CSCCN(CC)CC)[C@]2(C)[C@H](C)CC[C@]3(CCC(=O)[C@H]32)[C@@H](C)[C@@H]1O [TIAM, tiamulin] | 7.6 | 7600 ng/mL | 2520 ± 355 ng/mL | 2460 ± 311 ng/mL | 1560 ng/mL | 1540 ± 233 ng/mL | 2960 ± 299 ng/mL | 2570 ± 254 ng/mL | 875 ± 156 ng/mL | 567 ± 111 ng/mL | 621 ± 124 ng/mL | 279 ± 66 ng/mL | 254 ± 69 ng/mL | 138 ± 43 ng/mL | 269 ± 71 ng/mL | 156 ± 41 ng/mL | 279 ± 68 ng/mL | 182 ± 49 ng/mL | 176 ± 52 ng/mL | 202 ± 45 ng/mL | concentration at 1 d ([2]; male, (Landrace × Yorkshire) × Duroc crossbred (DanBred sows), pig, intramuscular, oral fluid, first day of medication (abstract), read-out: concentration in oral fluid on the first day of medication): 7600 ng/g; concentration at 20 d [2, 7]: 133 ± 36 ng/mL; concentration at 21 d [2, 7]: 148 ± 32 ng/mL; concentration at 22 d [2, 7]: 220 ± 44 ng/mL; concentration at 23 d [2, 7]: 146 ± 29 ng/mL; concentration at 24 d [2, 7]: 310 ± 55 ng/mL; concentration at 25 d [2, 7]: 193 ± 33 ng/mL; concentration at 26 d [2, 7]: 66.4 ± 12 ng/mL; concentration at 27 d [2, 7]: 54.3 ± 14 ng/mL; concentration at 28 d ([2]; male, (Landrace × Yorkshire) × Duroc crossbred (DanBred sows), pig, intramuscular, oral fluid, time 28 d, posttreatment, read-out: Avarage Concentrations in oral fluid): 35.8 ± 17 ng/mL; concentration at 29 d ([2]; male, (Landrace × Yorkshire) × Duroc crossbred (DanBred sows), pig, intramuscular, oral fluid, time 29 d, posttreatment, read-out: Avarage Concentrations in oral fluid): 40.6 ± 21 ng/mL; concentration at 30 d ([2]; male, (Landrace × Yorkshire) × Duroc crossbred (DanBred sows), pig, intramuscular, oral fluid, time 30 d, posttreatment, read-out: Avarage Concentrations in oral fluid): 46.9 ng/mL; Avarage Concentrations in oral fluid ([2]; oral fluid, time 1 d (24 h after first injection), treatment period): 7600 ± 1055 µg/L; Avarage Concentrations in oral fluid ([2]; oral fluid, time 4 d, posttreatment): 1560 ± 225 µg/L; Avarage Concentrations in oral fluid [2, 8]: 46.9 ± 19 µg/L; distribution to oral fluid [2]: high distribution
CC[C@H]1OC(=O)C[C@@H](O)[C@H](C)[C@@H](O[C@@H]2O[C@H](C)[C@@H](O[C@H]3C[C@@](C)(O)[C@@H](O)[C@H](C)O3)[C@H](N(C)C)[C@H]2O)[C@@H](CC=O)C[C@@H](C)C(=O)/C=C/C(C)=C/[C@@H]1CO[C@@H]1O[C@H](C)[C@@H](O)[C@@H](OC)[C@H]1OC [TYL, tylosin] | 7.1 | 396 ± 68 ng/mL | 958 ± 166 ng/mL | 832 ± 142 ng/mL | 654 ± 111 ng/mL | 538 ± 96 ng/mL | 475 ± 89 ng/mL | 175 ± 54 ng/mL | 118 ± 41 ng/mL | 158 ± 62 ng/mL | 49.3 ± 13 ng/mL | 54.4 ± 16 ng/mL | 140 ± 36 ng/mL | 32.3 ± 11 ng/mL | 30.6 ± 8.4 ng/mL | 19.2 ± 5.2 ng/mL | 52.8 ± 33 ng/mL | 31.9 ± 10 ng/mL | 13.9 ± 3.6 ng/mL | 16.1 ± 4.6 ng/mL | binding degree to plasma proteins [3]: < 50%; concentration at 1 d ([2]; male, (Landrace × Yorkshire) × Duroc crossbred (DanBred sows), pig, intramuscular, 5 mg/kg, oral fluid, time 1 d (24 h after first injection), treatment period, read-out: Avarage Concentrations in oral fluid): 396 ng/mL; concentration at 20 d [2, 7]: 25.4 ± 7.7 ng/mL; concentration at 21 d [2, 7]: 9.2 ± 2.1 ng/mL; concentration at 22 d [2, 7]: 5.5 ± 1.1 ng/mL; concentration at 23 d [2, 7]: 5.4 ± 0.8 ng/mL; concentration at 24 d [2, 7]: 6.6 ± 0.9 ng/mL; concentration at 25 d [2, 7]: 5 ± 1.3 ng/mL; concentration at 26 d [2, 7]: 3 ± 0.5 ng/mL; concentration at 27 d [2, 7]: 6.8 ± 1.7 ng/mL; concentration in oral fluid at withdrawal period ([2]; oral fluid, at the end of the withdrawal period for tissues of each drug (Table 3)): 6.6 ng/mL; day of peak concentration in oral fluid ([2]; oral fluid, day of drug administration): second day; time for which the analyte was present / quantified in oral fluid ([2]; oral fluid, sampling for 30 days): 27 days; Avarage Concentrations in oral fluid ([2]; oral fluid, time 28 d, posttreatment): <LOQ; Avarage Concentrations in oral fluid ([2]; oral fluid, time 29 d, posttreatment): <LOQ; Avarage Concentrations in oral fluid [2, 8]: <LOQ; distribution to oral fluid [2]: high distribution
